According to ChEMBL document CHEMBL6153065, “Heterologous Expression and Characterization of Estercin A, a Class II Lanthipeptide Derived from Clostridium estertheticum CF016, with Antimicrobial Activity against Clinically Relevant Pathogens” (2025):
Values after ≈ are worked out from the molar mass of the structure shown. Active and inactive are the calls of the source. No cut-off for these calls is given here. *1 amine or outer side, *2 acyl side, *3 side chain or, on linkers, in order; H or OH if unused. Where a SMILES comes first, the peptide text is derived from it. Bridges are numbered along the chain shown (N, C = ends). [ ]: non-standard residue; d: D form. X1 = O=C([C@@H](N[*:1])[C@H](O)C[*:3])[*:2]; Abu(4-yl) = O=C([C@H](CC[*:3])N[*:1])[*:2]

Experiments:
[1] = test system: Bacillus cereus; test: Antibacterial activity against Bacillus cereus ATCC14579 assessed as inhibition of bacterial growth at 1 mg/ml incubated for 16 hrs by agar well diffusion assay relative to control; format: functional; parameters: scale not given: the % may be the effect or the level left
[2] = test system: Staphylococcus aureus; test: Antibacterial activity against Staphylococcus aureus LMG15975 assessed as inhibition of bacterial growth at 1 mg/ml incubated for 16 hrs by agar well diffusion assay relative to control; format: functional; parameters: scale not given: the % may be the effect or the level left
[3] = test system: Lactococcus lactis; test: Antibacterial activity against Lactococcus lactis MG1363 assessed as inhibition of bacterial growth at 1 mg/ml incubated for 16 hrs by agar well diffusion assay relative to control; format: functional; parameters: scale not given: the % may be the effect or the level left
[4] = test system: Bacillus cereus; test: Antibacterial activity against Bacillus cereus ATCC14579 assessed as inhibition of bacterial growth by measuring increased activity more than estercin A (100%) at 1 mg/ml incubated for 16 hrs by agar well diffusion assay; format: functional; parameters: scale not given: the % may be the effect or the level left
[5] = test system: Lactococcus lactis; test: Antibacterial activity against Lactococcus lactis MG1363 assessed as inhibition of bacterial growth by measuring increased activity more than estercin A (100%) at 1 mg/ml incubated for 16 hrs by agar well diffusion assay; format: functional; parameters: scale not given: the % may be the effect or the level left
[6] = test system: Lactococcus lactis; test: Antibacterial activity against Lactococcus lactis MG1363 assessed as bacterial growth inhibition incubated for 18 hrs by Mueller-Hinton broth based doubling dilution method; format: functional
[7] = test system: Listeria monocytogenes; test: Antibacterial activity against Listeria monocytogenes LMG10470 assessed as bacterial growth inhibition incubated for 18 hrs by Mueller-Hinton broth based doubling dilution method; format: functional
[8] = test system: Staphylococcus aureus; test: Antibacterial activity against Staphylococcus aureus LMG10147 assessed as bacterial growth inhibition incubated for 18 hrs by Mueller-Hinton broth based doubling dilution method; format: functional
[9] = test system: Staphylococcus aureus; test: Antibacterial activity against methicillin-resistant Staphylococcus aureus LMG15975 assessed as bacterial growth inhibition incubated for 18 hrs by Mueller-Hinton broth based doubling dilution method; format: functional
[10] = test system: Enterococcus faecalis; test: Antibacterial activity against vancomycin-resistant Enterococcus faecalis LMG16216 assessed as bacterial growth inhibition incubated for 18 hrs by Mueller-Hinton broth based doubling dilution method; format: functional
[11] = test system: Enterococcus faecium; test: Antibacterial activity against vancomycin-resistant Enterococcus faecium LMG16003 assessed as bacterial growth inhibition incubated for 18 hrs by Mueller-Hinton broth based doubling dilution method; format: functional
[12] = test system: Bacillus cereus; test: Antibacterial activity against Bacillus cereus ATCC14579 assessed as bacterial growth inhibition incubated for 18 hrs by Mueller-Hinton broth based doubling dilution method; format: functional
[13] = test system: Clostridium botulinum; test: Antibacterial activity against Clostridium botulinum CECT551 assessed as bacterial growth inhibition incubated for 18 hrs by Mueller-Hinton broth based doubling dilution method; format: functional
[14] = test system: Clostridium perfringens; test: Antibacterial activity against Clostridium perfringens CECT376 assessed as bacterial growth inhibition incubated for 18 hrs by Mueller-Hinton broth based doubling dilution method; format: functional
[15] = test system: Clostridium tetani; test: Antibacterial activity against Clostridium tetani CECT4629 assessed as bacterial growth inhibition incubated for 18 hrs by Mueller-Hinton broth based doubling dilution method; format: functional
[16] = test system: Lactococcus lactis; test: Antibacterial activity against Lactococcus lactis MG1363 assessed as bacterial death at 10 times of MIC by time killing assay; format: functional, organism-based
[17] = test system: Lactococcus lactis; test: Binding affinity to Lactococcus lactis MG1363 lipid II at 8 ug by Spot-on-lawn assay; settings: dose 8.0 µg
[18] = test system: Cell membrane; test: Induction of membrane permeabilization in Lactococcus lactis MG1363 assessed as pore forming ability by measuring increase in red fluorescence at 2 times MIC measured after 15 mins by SYTO-9 Green dye/red PI staining based fluorescence microscopy; format: subcellular
[19] = test system: Lactococcus lactis; test: Antibacterial activity against Lactococcus lactis MG1363 at 1 mg/ml incubated under 22 degreeC for 4 hrs; format: functional, organism-based
[20] = test system: Lactococcus lactis; test: Antibacterial activity against Lactococcus lactis MG1363 at 1 mg/ml incubated under 55 degreeC for 4 hrs; format: functional, organism-based
[21] = test system: Lactococcus lactis; test: Antibacterial activity against Lactococcus lactis MG1363 at 1 mg/ml incubated at pH 2 for 4 hrs; format: functional, organism-based
[22] = test system: Lactococcus lactis; test: Antibacterial activity against Lactococcus lactis MG1363 at 1 mg/ml incubated at pH 4 for 4 hrs; format: functional, organism-based
[23] = test system: Lactococcus lactis; test: Antibacterial activity against Lactococcus lactis MG1363 at 1 mg/ml incubated at pH 7 for 4 hrs; format: functional, organism-based
[24] = test system: Lactococcus lactis; test: Antibacterial activity against Lactococcus lactis MG1363 at 1 mg/ml incubated for 2 hrs in presence of trypsin by agar plate method; format: functional, organism-based
[25] = test system: Lactococcus lactis; test: Antibacterial activity against Lactococcus lactis MG1363 at 1 mg/ml incubated under 95 degreeC for 4 hrs; format: functional, organism-based
[26] = test system: Lactococcus lactis; test: Antibacterial activity against Lactococcus lactis MG1363 at 1 mg/ml incubated at pH 10 for 4 hrs; format: functional, organism-based

C=C1NC(=O)[C@H](C(C)C)NC(=O)[C@@H]2CSC[C@@H](C(=O)N[C@@H](CCCCN)C(=O)O)NC(=O)[C@H](CSC[C@@H]3NC(=O)[C@H](Cc4ccccc4)NC(=O)[C@@H](NC(=O)[C@H](CC(N)=O)NC(=O)[C@@H](NC(=O)[C@@H](NC(=O)CNC(=O)CNC(=O)CN)C(C)C)[C@@H](C)CC)CSC[C@H](NC(=O)[C@H](CCC(=O)O)NC(=O)[C@H](Cc4c[nH]cn4)NC3=O)C(=O)N[C@@H](Cc3ccc(O)cc3)C(=O)N[C@@H](Cc3ccc(O)cc3)C(=O)N[C@@H](CC(N)=O)C(=O)N2)NC(=O)CNC(=O)CNC(=O)[C@H](Cc2c[nH]c3ccccc23)NC(=O)[C@H](CO)NC(=O)[C@H](C)NC(=O)[C@@H]2CCCN2C1=O
Activity [1]: 100%
Activity [2]: 100%
Activity [3]: 100%

C=C1NC(=O)[C@H](C(C)C)NC(=O)[C@@H]2CSC[C@@H](C(=O)N[C@@H](CCCCN)C(=O)O)NC(=O)[C@H](CSC[C@H]3NC(=O)[C@H](Cc4ccccc4)NC(=O)[C@@H](NC(=O)[C@@H](NC(=O)[C@@H](NC(=O)[C@@H](NC(=O)CNC(=O)CNC(=O)CN)C(C)C)[C@@H](C)CC)[C@@H](C)O)CSC[C@H](NC(=O)[C@H](CCC(=O)O)NC(=O)[C@H](Cc4c[nH]cn4)NC3=O)C(=O)N[C@@H](Cc3ccc(O)cc3)C(=O)N[C@@H](Cc3ccc(O)cc3)C(=O)N[C@@H](CC(N)=O)C(=O)N2)NC(=O)[C@H]([C@@H](C)O)NC(=O)CNC(=O)[C@H](Cc2c[nH]c3ccccc23)NC(=O)[C@H](CO)NC(=O)[C@H](C)NC(=O)[C@@H]2CCCN2C1=O
Activity [1]: inactive
Activity [2]: inactive
Activity [3]: inactive

C=C1NC(=O)[C@H](C(C)C)NC(=O)[C@@H]2CSC[C@@H](C(=O)N[C@@H](CCCCN)C(=O)O)NC(=O)[C@H](CSC[C@@H]3NC(=O)[C@H](Cc4ccccc4)NC(=O)[C@@H](NC(=O)[C@@H](NC(=O)[C@@H](NC(=O)[C@@H](NC(=O)CNC(=O)[C@H](CC(N)=O)NC(=O)CN)C(C)C)[C@@H](C)CC)[C@@H](C)O)CSC[C@H](NC(=O)[C@H](CCC(=O)O)NC(=O)[C@H](Cc4c[nH]cn4)NC3=O)C(=O)N[C@@H](Cc3ccc(O)cc3)C(=O)N[C@@H](Cc3ccc(O)cc3)C(=O)N[C@@H](CC(N)=O)C(=O)N2)NC(=O)CNC(=O)CNC(=O)[C@H](Cc2c[nH]c3ccccc23)NC(=O)[C@H](CO)NC(=O)[C@H](C)NC(=O)[C@@H]2CCCN2C1=O
Activity [2]: 100%
Activity [4]: 20%
Activity [5]: 20%

C=C1NC(=O)[C@H](C(C)C)NC(=O)[C@@H]2CSC[C@@H](C(=O)N[C@@H](CCCCN)C(=O)O)NC(=O)[C@H](CSC[C@@H]3NC(=O)[C@H](Cc4ccccc4)NC(=O)[C@@H](NC(=O)[C@@H](NC(=O)[C@@H](NC(=O)[C@@H](NC(=O)CNC(=O)CNC(=O)CN)C(C)C)[C@@H](C)CC)[C@@H](C)O)CSC[C@H](NC(=O)[C@H](CCC(=O)O)NC(=O)[C@H](Cc4c[nH]cn4)NC3=O)C(=O)N[C@@H](Cc3ccc(O)cc3)C(=O)N[C@@H](Cc3ccc(O)cc3)C(=O)N[C@@H](CC(N)=O)C(=O)N2)NC(=O)CNC(=O)CNC(=O)[C@H](Cc2c[nH]c3ccccc23)NC(=O)[C@H](CO)NC(=O)[C@H](C)NC(=O)[C@@H]2CCCN2C1=O
MIC [6]: 4 µg/mL (≈ 1.47 µM)
MIC [7]: > 64 µg/mL
MIC [8]: 16 µg/mL (≈ 5.87 µM)
MIC [9]: 4 µg/mL (≈ 1.47 µM)
MIC [10]: 64 µg/mL (≈ 23.5 µM)
MIC [11]: 64 µg/mL (≈ 23.5 µM)
MIC [12]: 8 µg/mL (≈ 2.94 µM)
MIC [13]: 32 µg/mL (≈ 11.7 µM)
MIC [14]: 1 µg/mL (≈ 0.367 µM)
MIC [15]: 4 µg/mL (≈ 1.47 µM)
Activity [16]: Not active; Slower Rate Of Killing Observed
Activity [17]: Active
Activity [18]: Not active; Only Green Fluorescence Observed
Activity [19]: inactive
Activity [20]: inactive
Activity [21]: Active
Activity [22]: Active
Activity [23]: Active
Activity [24]: Active; More Resistant Compared To Nisin
Activity [1]: 100%
Activity [2]: 100%
Activity [3]: 100%
Activity [25]: Not active; Less Than 30% Reduction In Activity Observed Relative To Control
Activity [26]: Active

CC[C@H](C)[C@H](NC(=O)[C@@H](NC(=O)[C@H](CCCCN)NC(=O)[C@H](CC(C)C)NC(=O)[C@@H](NC(=O)CNC(=O)[C@H](CC(N)=O)NC(=O)CN)C(C)C)[C@@H](C)O)C(=O)N[C@H]1CCSC[C@@H]2NC(=O)[C@@H](NC(=O)[C@H](Cc3ccccc3)NC(=O)[C@H](CC(C)C)NC(=O)[C@H](Cc3ccccc3)NC(=O)[C@H](CCC(N)=O)NC(=O)[C@H](Cc3c[nH]c4ccccc34)NC(=O)[C@H]([C@@H](C)O)NC(=O)[C@H](CC(N)=O)NC(=O)[C@H](CCSC)NC(=O)[C@H](CC(N)=O)NC(=O)[C@H](CS)NC(=O)[C@H](CCC(=O)O)NC(=O)[C@H](Cc3c[nH]cn3)NC1=O)[C@H](O)CSC[C@@H](C(=O)O)NC2=O (H-GNGVLKTI[Abu(4-yl)]HECNMNTWQFLF[X1]CC-OH; thioether 9-23, 22-24)
MIC [14]: 75 µg/mL (≈ 27.4 µM)

C=C1NC(=O)[C@H](C(C)C)NC(=O)[C@@H]2CSC[C@@H](C(=O)N[C@@H](CCCCN)C(=O)O)NC(=O)[C@H](CSC[C@H]3NC(=O)[C@H](Cc4ccccc4)NC(=O)[C@@H](NC(=O)[C@@H](NC(=O)[C@@H](NC(=O)[C@@H](NC(=O)CNC(=O)CNC(=O)CN)C(C)C)[C@@H](C)CC)[C@@H](C)O)CSC[C@@H](NC(=O)[C@H](CCC(=O)O)NC(=O)[C@H](Cc4c[nH]cn4)NC3=O)C(=O)N[C@@H](Cc3ccc(O)cc3)C(=O)N[C@@H](Cc3ccc(O)cc3)C(=O)N[C@@H](CC(N)=O)C(=O)N2)NC(=O)CNC(=O)[C@H](CO)NC(=O)[C@H](C)NC(=O)[C@@H]2CCCN2C1=O
Activity [1]: inactive
Activity [2]: inactive
Activity [3]: inactive

C=C(NC(=O)[C@@H](NC(=O)[C@H](Cc1c[nH]cn1)NC(=O)[C@@H](NC(=O)[C@H](CO)NC(=O)[C@@H]1CS[C@@H](C)[C@H]2NC(=O)C(=C)NC(=O)[C@H](NC(=O)[C@H](CCCCN)NC(=O)[C@H](CCSC)NC(=O)[C@H](CC(N)=O)NC(=O)[C@@H]3CS[C@@H](C)[C@@H](NC(=O)[C@H](CCCNN)NC(=O)[C@@H]4CS[C@@H](C)[C@@H](NC(=O)[C@@H]5CSC[C@@H](NC(=O)/C(=C\C)NC(=O)[C@@H](N)[C@@H](C)CC)C(=O)N[C@@H]([C@@H](C)CC)C(=O)NC(=C)C(=O)N[C@@H]([C@@H](C)CC)C(=O)N5)C(=O)N5CCC[C@H]5C(=O)NCC(=O)N4)C(=O)NCC(=O)N[C@@H](C)C(=O)N[C@@H]([C@@H](C)CC)C(=O)N[C@@H](CCSC)C(=O)NCC(=O)N3)[C@H](C)SC[C@H](NC2=O)C(=O)N[C@@H](Cc2c[nH]cn2)C(=O)N1)[C@@H](C)CC)C(C)C)C(=O)N[C@@H](CCCCN)C(=O)O
MIC [6]: 0.016 µg/mL (≈ 0.00477 µM)
MIC [7]: 8 µg/mL (≈ 2.39 µM)
MIC [8]: 16 µg/mL (≈ 4.77 µM)
MIC [9]: 4 µg/mL (≈ 1.19 µM)
MIC [10]: 4 µg/mL (≈ 1.19 µM)
MIC [11]: 4 µg/mL (≈ 1.19 µM)
MIC [12]: 4 µg/mL (≈ 1.19 µM)
MIC [13]: 4 µg/mL (≈ 1.19 µM)
MIC [14]: 1 µg/mL (≈ 0.298 µM)
MIC [15]: 4 µg/mL (≈ 1.19 µM)
Activity [16]: Active; Rapid Cell Death Observed
Activity [18]: Active
Activity [21]: Active
Activity [22]: Active
Activity [23]: Active
Activity [26]: Active
